Measured values published in patent US12459951B2, “Compounds that interact with RAS superfamily proteins for treatment of cancers, inflammatory diseases, rasopathies, and fibrotic disease” (SHY Therapeutics, LLC, priority 2022, dated 2025).

system: MAPK p38 phosphorylation; test: MAPK p38 Activation Assay (western blot), Panc-1; assay type: cell-based, human; conditions: at 10 μM, Panc-1 pancreatic cancer cell line; starred symbols = activation
In short: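 Panc-1 cells (KRas G12D) were treated with compound for 6 h at 37 °C, at 10 μM or as serial dilutions for IC50, with 0.3% DMSO. Method 1 used overnight serum-starved cells (0.5% FBS) stimulated with 1.5 ng/ml EGF for 15 min; Method 2 used unstimulated cells in 10% FBS. Phospho-p38 (Thr180/Tyr182) was detected by western blot.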

| SMILES | % inh of MAPK p38 in Panc-1 |
| --- | --- |
| COc1ccnc(Nc2nc(-c3nccn3C)nn3cc(-c4ccn(CCNC(=O)CCCC[C@H]5SC[C@H]6NC(=O)N[C@H]65)n4)c(C)c23)c1 [Compound 215, N-(2-(3-(4-((4-methoxypyridin-2-yl)amino)-5-methyl-2-(1-methyl-1H-imidazol-2-yl)pyrrolo[2,1-f][1,2,4]triazin-6-yl)-1H-pyrazol-1-yl)ethyl)-5-((3aR,4R,6aS)-2-oxohexahydro-1H-thieno[3,4-d]imidazol-4-yl)pentanamide] | F (F = 31-74% inhibition) |
| COc1ccnc(Nc2nc(-c3nccn3C)nn3cc(-c4c(F)cccc4OC)c(-c4ccccc4)c23)c1 [Compound 217, 6-(2-Fluoro-6-methoxyphenyl)-N-(4-methoxypyridin-2-yl)-2-(1-methyl-1H-imidazol-2-yl)-5-phenylpyrrolo[2,1-f][1,2,4]triazin-4-amine] | F (F = 31-74% inhibition) |
| CO[C@H]1C[C@H](Nc2nc(-c3nccn3C)nn3cc(-c4cnccc4C)c(-c4ccccc4)c23)C1 [Compound 218, N-((1r,3r)-3-Methoxycyclobutyl)-2-(1-methyl-1H-imidazol-2-yl)-6-(4-methylpyridin-3-yl)-5-phenylpyrrolo[2,1-f][1,2,4]triazin-4-amine] | F* (F* = 31-74% activation) |
| COc1ccnc(Oc2nc(-c3nccn3C)nn3cc(-c4ccn(C)n4)c(C)c23)c1 [Compound 220, 4-((4-Methoxypyridin-2-yl)oxy)-5-methyl-2-(1-methyl-1H-imidazol-2-yl)-6-(1-methyl-1H-pyrazol-3-yl)pyrrolo[2,1-f][1,2,4]triazine] | F (F = 31-74% inhibition) |
| Cc1c(-c2ccn(C)n2)cn2nc(-c3nccn3C)nc(Nc3cc4c(cn3)CCO4)c12 [Compound 221, N-(5-Methyl-2-(1-methyl-1H-imidazol-2-yl)-6-(1-methyl-1H-pyrazol-3-yl)pyrrolo[2,1-f][1,2,4]triazin-4-yl)-2,3-dihydrofuro[3,2-c]pyridin-6-amine] | E (E = 1-30% inhibition) |

system: not listed separately; test: Kinetic Solubility Assay in pH 7.4 Buffer + 2% DMSO; assay type: physicochemical; conditions: phosphate-buffered saline pH 7.4 with 2% DMSO, aqueous buffer, kinetic from dmso stock, 25° C., two hours
In short: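 Compound from 20 mM DMSO stock diluted to nominal 400 μM in PBS pH 7.4 with 2% DMSO, in duplicate, shaken 2 h at 25° C., then filtered. Filtrate quantified by UV absorbance (230-550 nm) against 10-200 μM calibration curves; effective range ~2-400 μM.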

| SMILES | solubility at 2 h [µM] |
| --- | --- |
| Cc1c(-c2ccn(C)n2)cn2nc(-c3nccn3C)nc(Nc3cc4c(cn3)CCO4)c12 [Compound 221, N-(5-Methyl-2-(1-methyl-1H-imidazol-2-yl)-6-(1-methyl-1H-pyrazol-3-yl)pyrrolo[2,1-f][1,2,4]triazin-4-yl)-2,3-dihydrofuro[3,2-c]pyridin-6-amine] | 10 to 30 |
| Cc1c(-c2ccn(C)n2)cn2nc(-c3nccn3C)nc(Nc3cc(N4CCOCC4)ccn3)c12 [Compound 222, 5-Methyl-2-(1-methyl-1H-imidazol-2-yl)-6-(1-methyl-1H-pyrazol-3-yl)-N-(4-morpholinopyridin-2-yl)pyrrolo[2,1-f][1,2,4]triazin-4-amine] | 10 to 30 |
| COc1ccc(Nc2nc(-c3nccn3C)nn3cc(-c4ccn(C)n4)c(C)c23)nc1 [Compound 224, N-(5-Methoxypyridin-2-yl)-5-methyl-2-(1-methyl-1H-imidazol-2-yl)-6-(1-methyl-1H-pyrazol-3-yl)pyrrolo[2,1-f][1,2,4]triazin-4-amine] | < 10 |
| Cc1ccc(Nc2nc(-c3nccn3C)nn3cc(-c4ccn(C)n4)c(C)c23)nc1 [Compound 226, 5-Methyl-2-(1-methyl-1H-imidazol-2-yl)-6-(1-methyl-1H-pyrazol-3-yl)-N-(5-methylpyridin-2-yl)pyrrolo[2,1-f][1,2,4]triazin-4-amine] | < 10 |
| Cc1c(-c2ccn(C)n2)cn2nc(-c3nccn3C)nc(Nc3ccc(N(C)C)cn3)c12 [Compound 227, N5,N5-Dimethyl-N2-(5-methyl-2-(1-methyl-1H-imidazol-2-yl)-6-(1-methyl-1H-pyrazol-3-yl)pyrrolo[2,1-f][1,2,4]triazin-4-yl)pyridine-2,5-diamine] | < 10 |
| COc1cc(Nc2nc(-c3nccn3C)nn3cc(-c4ccn(C)n4)c(C)c23)ncc1C [Compound 235, N-(4-Methoxy-5-methylpyridin-2-yl)-5-methyl-2-(1-methyl-1H-imidazol-2-yl)-6-(1-methyl-1H-pyrazol-3-yl)pyrrolo[2,1-f][1,2,4]triazin-4-amine] | < 10 |
| COc1cc(Nc2nc(-c3nccn3C)nn3cc(-c4ccn(C)n4)c(C)c23)ncc1C1CC1 [Compound 238, N-(5-Cyclopropyl-4-methoxypyridin-2-yl)-5-methyl-2-(1-methyl-1H-imidazol-2-yl)-6-(1-methyl-1H-pyrazol-3-yl)pyrrolo[2,1-f][1,2,4]triazin-4-amine] | < 10 |
